This is an account of results in publication doi:10.1101/2023.05.09.538545v2, “Engineering dynamic gates in binding pocket of penicillin G acylase to selectively degrade bacterial signaling molecules” (biorxiv, 2024).

The experiment has as its target T1, ecPGA (Escherichia coli penicillin G acylase) (Escherichia coli, UniProt P06875).
T1 construct: gene pac; mature alpha/beta heterodimer cut from one precursor (signal peptide and spacer removed); ecpga gene in pET-26b, E. coli BL21(DE3), purified after Kutzbach and Rauenbusch; His-tagged version made for melting analysis; WT source plasmid pKA18
The experiment can be described thus: HPLC of AHL hydrolysis at […] nm, initial rates. The class given is biochemical.

T1 sequence (P06875 27-235): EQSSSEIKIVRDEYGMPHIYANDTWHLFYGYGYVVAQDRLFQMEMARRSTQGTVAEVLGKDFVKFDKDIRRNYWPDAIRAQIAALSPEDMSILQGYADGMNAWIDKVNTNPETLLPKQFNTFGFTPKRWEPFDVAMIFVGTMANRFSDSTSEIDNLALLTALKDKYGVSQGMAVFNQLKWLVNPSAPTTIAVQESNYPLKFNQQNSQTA
T1 sequence (P06875 290-846): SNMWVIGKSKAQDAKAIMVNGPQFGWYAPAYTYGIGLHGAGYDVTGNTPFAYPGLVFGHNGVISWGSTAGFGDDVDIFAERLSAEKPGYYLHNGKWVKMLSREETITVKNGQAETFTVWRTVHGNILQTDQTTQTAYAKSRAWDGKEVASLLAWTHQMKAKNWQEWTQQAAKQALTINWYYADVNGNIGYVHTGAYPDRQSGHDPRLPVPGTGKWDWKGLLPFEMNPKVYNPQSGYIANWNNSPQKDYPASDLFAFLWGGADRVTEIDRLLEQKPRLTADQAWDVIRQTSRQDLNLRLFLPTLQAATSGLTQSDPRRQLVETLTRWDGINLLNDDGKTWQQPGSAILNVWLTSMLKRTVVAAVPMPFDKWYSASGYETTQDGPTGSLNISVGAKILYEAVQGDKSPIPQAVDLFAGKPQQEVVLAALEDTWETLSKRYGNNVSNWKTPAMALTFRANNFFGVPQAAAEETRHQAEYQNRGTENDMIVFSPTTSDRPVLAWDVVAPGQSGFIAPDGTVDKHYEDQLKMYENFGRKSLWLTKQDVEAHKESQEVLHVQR

Regarding `CCCCCCCC(=O)N[C@H]1CCOC1=O` [C08, N-octanoyl-L-homoserine lactone], the Km was 700 ± 40 µM.

What is called Km is the concentration of substrate that gives half-maximal velocity.
